In patent US4217305A, “Phenylethanolamine derivatives” (Yamanouchi Pharmaceutical Co., Ltd., priority 1977, dated 1980):

How the values were obtained:
Format in all cases: in vivo
α-Adrenergic = α-Adrenergic blocking action: antagonism of hypertensive response to phenylephrine in anesthetized rats; settings: urethane anesthetized, pentolinium treated rats, phenylephrine 10 μg/Kg i.v.; for α-blocking (Rat) ED50: i.v.; for ED50: Rattus norvegicus, iv, read-out: α-blocking (Rat) ED50
Experimental: A. α-Adrenergic blocking action: (a) The blood pressure was measured in rats anesthetized with urethane and treated with pentolinium.

β-Adrenergic = β-Adrenergic blocking action: antagonism of isoproterenol induced tachycardia in rats; settings: reserpine pretreated, pentobarbital anesthetized rats, isoproterenol 0.1 μg/Kg iv.; for β-blocking (Rat) ED50: i.v.; for ED50: Rattus norvegicus, iv
Experimental: Bilateral vagotomy was performed at the neck. The effects of the test samples to antagonize the isoproterenol (0.1 μg/Kg iv.) induced tachycardia were measured and the results were shown in Table I.

[1] = test system: spontaneously hypertensive rats; assay: Antihypertensive effects in spontaneously hypertensive rats, oral administration; settings: at 10 mg/Kg p.o., mean ± S.E. of 5 to 10 animals, measured indirectly from the tail
Experimental: B. Antihypertensive effects in spontaneously hypertensive rats: Oral administration: The systolic blood pressure was measured indirectly from the tail using a programmed electro-sphygmanometer (Nacro Bio-Systems Inc., PE-300) on spontaneously hypertensive rats having a systolic blood pressure of higher than 150 mmHg, the result being shown in Table II.

SMILES	α-blocking (Rat) ED50 (α-Adrenergic) [mg/kg]	β-blocking (Rat) ED50 (β-Adrenergic) [mg/kg]	antihypertensive effect: change in systolic blood pressure ([1]; 10 mg/kg) [mmHg]	ED50 (α-Adrenergic) [mg/kg]	ED50 (β-Adrenergic) [mg/kg]	antihypertensive effect: change in systolic blood pressure [1] [mmHg]	also measured
COc1ccccc1OCC(C)NCC(O)c1ccc(C)c(S(N)(=O)=O)c1 (stereo not drawn) [69(i2), 5-{1-hydroxy-2-[2-(2-methoxyphenoxy)-1-methylethylamino]ethyl}-2-methylbenzenesulfonamide]	0.054	0.47	-32 ± 6.7	–	–	–	–
COc1ccccc1OCC(C)NCC(O)c1ccc(C)c(S(N)(=O)=O)c1 (stereo not drawn) [69(i1 + i2), 5-{1-hydroxy-2-[2-(2-methoxyphenoxy)-1-methylethylamino]ethyl}-2-methylbenzenesulfonamide]	0.27	0.083	-43 ± 5.8	–	–	–	–
Cc1ccc(C(O)CNC(C)COc2ccccc2O)cc1S(N)(=O)=O.Cl (stereo not drawn) [Example 41, 5-{1-Hydroxy-2-[2-(2-hydroxyphenoxy)-1-methylethylamino]-ethyl}-2-methylbenzenesulfonamide hydrochloride]	–	–	–	0.66	0.044	-30 ± 4.9	–
COc1ccccc1OCC(C)NCC(O)c1ccc(OC)c(S(N)(=O)=O)c1.Cl (stereo not drawn) [Example 34, 5-{1-Hydroxy-2-[2-(2-methoxyphenoxy)-1-methylethylamino]-ethyl}-2-methoxybenzenesulfonamide hydrochloride]	–	–	–	0.068	0.28	-20 ± 4.3	–
COc1ccccc1OCCNCC(O)c1ccc(C)c(S(N)(=O)=O)c1.Cl (stereo not drawn) [Example 47, 5-{1-Hydroxy-2-[2-(2-methoxyphenoxy)ethylamino]ethyl}-2-methylbenzenesulfonamide hydrochloride]	–	–	–	0.034	0.16	-35 ± 6.4	–
COc1ccccc1CCC(C)NCC(O)c1ccc(C)c(S(N)(=O)=O)c1.Cl (stereo not drawn) [36(i1 + i2), 5-{1-Hydroxy-2-[3-(2-methoxyphenyl)-1-methylpropylamino]-ethyl}-2-methylbenzenesulfonamide hydrochloride]	–	–	–	–	–	–	α-blocking (Rat) ED50 (α-Adrenergic; hydrochloride): 0.43 mg/kg; β-blocking (Rat) ED50 (β-Adrenergic; hydrochloride): 0.095 mg/kg; antihypertensive effect: change in systolic blood pressure ([1]; hydrochloride, 10 mg/kg): -40 ± 6.6 mmHg
COc1ccccc1OCC(C)NCC(O)c1ccc(C)c(S(N)(=O)=O)c1 (stereo not drawn) [69(i1), 5-{1-hydroxy-2-[2-(2-methoxyphenoxy)-1-methylethylamino]ethyl}-2-methylbenzenesulfonamide]	0.24	0.057	-28 ± 7.7	–	–	–	–
